In patent EP1745783A1, “Substituted pyrazoline compounds, their preparation and use as medicaments” (Laboratorios del Dr. Esteve S.A., priority 2005, dated 2007):

Key:
[1] = test system: cannabinoid receptors; assay: Mouse tetrad model, antagonistic effect against Win 55212-2; type: in vivo, Male NMRI mice; conditions: 5 mg/kg i.v. prior to Win 55212-2 in a dose of 1,25mg/kg i.v., mice
Description: (§1) Substances with affinity for cannabinoid receptors are known to produce a wide range of pharmacological effects. It is also known that intravenous administration of a substance with affinity for cannabinoid receptors in mice produces analgesia , hypothermia, sedation and catalepsy. Individually, none of these effects can be considered as proof that a tested substance has affinity for cannabinoid-receptors, since all of these effects are common for various classes of centrally active agents. However, substances, which show all of these effects, i.e. substances that are active in this so-called tetrad model are considered to have affinity for the cannabinoid receptors. It has further been shown that cannabinoid receptor antagonists are higly effective in blocking the effects of a cannabinoid agonist in the mouse tetrad model.
(§2) The tetrad model is described, for example, in the publication of A. C. Howlett et al, International Union of Pharmacology XXVII. Classification of Cannabinoid Receptors, Pharmacol Rev 54, 161-202 , 2002 and David R. Compton et al., "In-vivo Characterization of a Specific Cannabinoid Receptor Antagonist (SR141716A) :Inhibition of Tetrahydrocannbinol- induced Responses and Apparent Agonist Activity", J. Pharmacol. Exp. Ther. 277 , 2, 586-594, 1996. The corresponding parts of the description are hereby incorporated by reference. […]
(§3) Before testing in the behavioral procedures given below, mice are acclimatized to the experimental setting. Pre-Treatment control values are determined for analgesia hot plate latency (in seconds), rectal temperature, sedation and catalepsy.
In order to determine the antagonistic activity the identical procedure is used as for the determination of the agonistic effects, but with the difference that the substance to be evaluated for its antagonistic activity is injectected 5 minutes before the intravenous injection of 1.25 mg/kg Win-55,212 a known cannabinoid-receptor agonist.
(§4) The hot plate analgesia is determined according to the method described in Woolfe D. et al. "The evaluation of analgesic action of pethidine hydrochloride (Demerol)", J. Pharmacol. Exp. Ther. 80, 300-307,1944. […]
(§5) The mice are placed on a hot plate (Harvard Analgesimeter) at 55 ± 0.5 °C until they show a painful sensation by licking their paws or jumping and the time for these sensations to occur is recorded. This reading is considered the basal value (B). […]
(§6) Fifteen minuts after the administration of the substance to be tested, the mice are again placed on the hot plate and the afore described procedure is repeated. This period is called the post-treatment reading (PT).
(§7) The degree of analgesia is calculated from the formula : %MPE of Analgesia = (PT-B)/(PC-B) × 100 [formula] […]

[2] = test system: cannabinoid receptors; assay: Mouse tetrad model, agonistic effect; type: in vivo, Male NMRI mice; conditions: 5 mg/kg i.v., mice
Description: as §1, §2, §3
In order to determine the agonistic activty of the substance to be tested, the mice are injected intravenously with the substance to be tested or the vehicle alone. 15 minutes after injection, latency in hot plate analgesia is measured. Rectal temperature, sedation and catalepsy are measured 20 minutes after injection.
as §4, §5, §6, §7

Structure (SMILES): O=C(NN1CCCCC1)C1=NN(c2ccc(Cl)cc2Cl)C(c2ccc(Cl)cc2)C1 (centres unmarked) [Example 1, N-piperidinyl-5-(4-chlorophenyl)-1-(2,4-dichlorophenyl)-4,5-dihydro-1H-pyrazole-3-carboxamide]
- Antagonistic Effect A: Hot-Plate test [1]: 74
- Antagonistic Effect B: Hypothermia [1]: 100
- Antagonistic Effect C: Catalepsy [1]: 100
- Antagonistic Effect D: Sedation [1]: 100
- Agonistic effect A: Hot-Plate test [2]: 0
- Agonistic effect B: Hypothermia [2]: 0
- Agonistic effect C: Catalepsy [2]: 0
- Agonistic effect D: Sedation [2]: 0
